# Measurements reported in paper PMC3963422 (Journal of Visualized Experiments : JoVE, 2013).
# Columns and labels:
# [1] = cantilever array surface stress detection, D-Lac coated cantilevers, buffer; assay type: binding
# [2] = cantilever bending in serum, D-Ala coated cantilevers; assay type: binding; details: 7 μM Van in serum (90% fetal calf serum plus 10% sodium phosphate buffer pH 7.4), 25 °C
# [3] = cantilever bending in serum, D-Lac coated cantilevers; assay type: binding; details: 7 μM Van in serum (90% fetal calf serum plus 10% sodium phosphate buffer pH 7.4), 25 °C
# [4] = D-Lac vs D-Ala peptide terminus; cited from earlier work
# [5] = tested on: vancomycin-resistant Enterococcus (VRE); details: vancomycin-resistant Enterococcus (D-Lac); cited from earlier work
compound,measurement,setting,value
"CN[C@H](CC(C)C)C(=O)N[C@H]1C(=O)N[C@@H](CC(N)=O)C(=O)N[C@H]2C(=O)N[C@H]3C(=O)N[C@H](C(=O)N[C@H](C(=O)O)c4cc(O)cc(O)c4-c4cc3ccc4O)[C@H](O)c3ccc(c(Cl)c3)Oc3cc2cc(c3O[C@@H]2O[C@H](CO)[C@@H](O)[C@H](O)[C@H]2O[C@H]2C[C@](C)(N)[C@H](O)[C@H](C)O2)Oc2ccc(cc2Cl)[C@H]1O [Van, vancomycin]",bending signal at high vancomycin concentration,[1],measureable bending signals
same,differential bending signal,[2],105±4 nm
same,bending signal,[3],no bending was observed
same,reduction in Van-D-Lac binding affinity,[4],three orders of magnitude
same,therapeutic effectiveness against Enterococcal infections,[5],therapeutically ineffective
